Results from the NIST ThermoML archive (doi:10.1021/je060078g).
Numbers after ± are expanded uncertainties.

Conditions: Liquid; pulse-heating method

Structure (SMILES) | Critical pressure | Critical temperature
O=C(O)CCCCc1ccccc1 [5-phenylvaleric acid] | 2950 ± 100 kPa | 790 ± 8 K
O=C(O)CCc1ccccc1 [3-phenylpropanoic acid] | 3460 ± 120 kPa | 776 ± 8 K
O=C(O)Cc1ccccc1 [phenylacetic acid] | 3950 ± 140 kPa | 766 ± 8 K
O=C(O)CCCCCCc1ccccc1 [7-phenylheptanoic acid] | 2470 ± 90 kPa | 798 ± 8 K
O=C(O)CCCCCc1ccccc1 [6-phenylhexanoic acid] | 2600 ± 90 kPa | 794 ± 8 K
O=C(O)CCCc1ccccc1 [4-phenylbutanoic acid] | 3210 ± 110 kPa | 783 ± 8 K
